ChEMBL document CHEMBL2010796, “Systematic structure modifications of imidazo[1,2-a]pyrimidine to reduce metabolism mediated by aldehyde oxidase (AO)” (J Med Chem, 2011)
Blank lines part the entries; values can stand above or below the molecule they belong to. The source made the active and inactive calls. The rule behind the calls is not given here.

Legend:
[1] = molecular target: T1, Androgen receptor (Homo sapiens) (UniProt P10275); test: Antagonist activity at human androgen receptor expressed in LNAR cells assessed as inhibition of […]-induced luciferase activity by reporter gene assay; format: functional, cell-based
T1 sequence (whole entry): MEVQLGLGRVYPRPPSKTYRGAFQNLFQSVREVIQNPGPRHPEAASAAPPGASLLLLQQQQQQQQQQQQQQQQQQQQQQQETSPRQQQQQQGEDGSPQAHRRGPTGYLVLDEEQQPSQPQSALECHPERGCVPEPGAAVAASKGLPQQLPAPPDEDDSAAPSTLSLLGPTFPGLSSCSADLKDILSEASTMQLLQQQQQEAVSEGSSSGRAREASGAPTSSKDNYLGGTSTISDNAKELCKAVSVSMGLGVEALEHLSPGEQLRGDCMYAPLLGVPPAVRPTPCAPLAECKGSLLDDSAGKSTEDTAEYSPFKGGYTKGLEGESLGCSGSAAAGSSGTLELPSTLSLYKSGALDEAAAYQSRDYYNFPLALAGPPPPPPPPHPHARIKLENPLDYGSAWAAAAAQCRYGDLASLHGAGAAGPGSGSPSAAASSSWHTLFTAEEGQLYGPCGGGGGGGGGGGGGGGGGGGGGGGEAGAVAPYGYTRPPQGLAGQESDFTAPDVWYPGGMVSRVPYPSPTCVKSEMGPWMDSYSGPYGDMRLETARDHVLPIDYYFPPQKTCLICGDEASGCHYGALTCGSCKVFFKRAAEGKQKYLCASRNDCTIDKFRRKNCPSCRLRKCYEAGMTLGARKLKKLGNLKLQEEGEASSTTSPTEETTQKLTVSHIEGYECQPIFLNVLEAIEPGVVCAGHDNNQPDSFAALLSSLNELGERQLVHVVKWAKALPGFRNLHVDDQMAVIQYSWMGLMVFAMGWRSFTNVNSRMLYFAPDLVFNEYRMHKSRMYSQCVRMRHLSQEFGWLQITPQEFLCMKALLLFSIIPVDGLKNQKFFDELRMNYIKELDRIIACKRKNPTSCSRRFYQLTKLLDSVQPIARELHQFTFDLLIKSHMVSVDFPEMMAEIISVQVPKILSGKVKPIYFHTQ

[2] = Drug metabolism in human liver microsomes assessed as CYP450-mediated oxidation; format: ADME, Microsome
[3] = Kinetic solubility in water; format: physicochemical; details: read-out: Kinetic_solubility
[4] = Oral bioavailability in rat; format: ADME, organism-based; details: in vivo
[5] = Plasma clearance in rat; format: ADME, organism-based
[6] = Half life in rat; format: ADME, organism-based; details: in vivo

Compound: CC1(C)[C@H](NC(=O)c2cnc3ncccn23)C(C)(C)[C@H]1Oc1ccc(C#N)c(Cl)c1
inhibition [1]: Active

Compound: CC1(C)[C@H](NC(=O)c2cnc3ncccn23)C(C)(C)[C@H]1Oc1ccc(C#N)c(C#N)c1
inhibition [1]: Active

Continued, values first:

inhibition [1]: Active
Compound: COc1nc(O[C@H]2C(C)(C)[C@H](NC(=O)c3cnc4ncccn34)C2(C)C)ccc1C#N

Drug metabolism [2]: Active
solubility kinetic [3]: < 0.4 µM
Compound: Cc1nc(O[C@H]2C(C)(C)[C@H](NC(=O)c3cnc4ccccn34)C2(C)C)ccc1C#N

bioavailability [4]: 31%
clearance [5]: 11.6 mL/min/kg
half-life [6]: 3.6 h
Compound: Cc1nc(O[C@H]2C(C)(C)[C@H](NC(=O)c3cnc4ncccn34)C2(C)C)ccc1C#N
